This is an account of results in patent US20110118275A1, “OXAZOLO[4,5-c]PYRIDINE SUBSTITUTED PYRAZINE” (ASTRAZENECA AB, priority 2009, published 2011).

For data set [1], the target named is T1, recombinant Axl tyrosine kinase (Homo sapiens, UniProt P30530).
T1 construct: GST (N); made in house; host or cells: SF126 insect cells
T1 sequence (P30530 473-894): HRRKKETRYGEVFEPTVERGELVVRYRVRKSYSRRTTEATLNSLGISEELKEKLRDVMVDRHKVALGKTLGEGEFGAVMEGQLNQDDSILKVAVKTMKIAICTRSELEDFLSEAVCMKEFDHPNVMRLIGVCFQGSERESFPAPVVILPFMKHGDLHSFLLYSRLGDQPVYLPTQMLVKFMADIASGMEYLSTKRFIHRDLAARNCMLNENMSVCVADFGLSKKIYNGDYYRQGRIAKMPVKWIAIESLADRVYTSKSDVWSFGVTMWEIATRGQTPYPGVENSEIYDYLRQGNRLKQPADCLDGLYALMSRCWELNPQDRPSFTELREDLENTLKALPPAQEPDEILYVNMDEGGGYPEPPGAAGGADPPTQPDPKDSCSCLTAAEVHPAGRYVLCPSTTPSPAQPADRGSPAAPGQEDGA
The data set can be described thus: In vitro Axl kinase assay (AlphaScreen). The data set is classed as biochemical. The note with it: Ki calculated from IC50, Km for ATP 0.2 μM. The source says:
Determination of the In Vitro Axl Kinase Assay.
The following assays can be used to measure the effects of the compounds of the present invention as inhibitors of Axl tyrosine kinase enzyme, as inhibitors in vitro of the phosphorylation of Axl expressed on NCI H1299 lung large cell carcinoma cells. The assay used AlphaScreen technology (Gray et al., Analytical Biochemistry, 2003, 313: 234-245) to determine the ability of test compounds to inhibit phosphorylation by recombinant Axl tyrosine kinase.
N-terminal GST-Axl kinase domain encompassing amino acids 473 to 894 of Axl (GenBank Accession No NM_021913) was expressed in […] insect cells and purified using the GST epitope tag, using standard purification techniques.
Test compounds were prepared as 10 mM stock solutions in dimethylsulphoxide (DMSO) and diluted in DMSO as required. […]
Each reaction was stopped by the addition of 5 μl of a mixture of 500 mM EDTA, 3 mg/ml bovine serum albumin (BSA) and 20 mM Tris-HCl pH 7.4 buffer containing 40 ng/μl AlphaScreen Streptavidin donor and anti-p-Tyr-100 acceptor beads (Perkin Elmer, Catalogue No. 6760620M). The resultant signals arising from laser light excitation at 680 nm were read using a Packard Envision instrument. […]

The target of the next data set is T2, recombinant human GSK3β (Homo sapiens, UniProt P49841).
T2 construct: purchased Dundee University, UK
Nature of the data set: Determination of GSK3β activity in Scintillation Proximity Assay. The data set is classed as biochemical. Particulars: Km of ATP 3 μM used to calculate Ki; 1 μmol/L ATP; read-out: mean GSKβ Ki value. How it is done:
Determination of GSK3β activity in Scintillation Proximity Assay.
The inhibition experiments were carried out in duplicate with 10 concentrations of the inhibitor in 384 well clear-bottom microtitre plates. A biotinylated peptide substrate (Biotin-Ala-Ala-Glu-Glu-Leu-Asp-Ser-Arg-Ala-Gly-Ser(PO3H2)-Pro-Gln-Leu (AstraZeneca, Lund)), was added at a final concentration of 1 μmol/L in an assay buffer (pH 7.0) containing 0.6 mU recombinant human GSK3β (Dundee University, UK), (˜5 nmol/L active enzyme), 10 mmol/L morpholinepropanesulfonic acid (MOPS), 0.3 mmol/L EDTA, 0.01% (v/v) (3-mercaptoethanol, 0.003% (w/v) polyethylene 23 lauryl ether (Brij 35), 0.4% glycerol and 0.02 mg bovine serum albumine (BSA) and preincubated for 10 minutes. The reaction was initiated by the addition of 0.06 μCi [γ-33P]ATP (Amersham, UK) and unlabelled ATP in 30 mmol/L Mg(Ac)2 to a final concentration of 1 μmol/L ATP. The final assay volume was 15 μL. Blank controls without peptide substrate were used. After incubation for 15 min at room temperature, the reaction was terminated by the to addition of stop solution containing 1.3 mmol/L EDTA, 13 μmol/L ATP, 0.02% Triton™X-100 and 0.15 mg streptavidin coated SPA beads. After a 5 minutes centrifugation at 2000 rpm, the radioactivity was measured in a liquid scintillation counter (1450 MicroBeta Trilux, Perkin Elmer, Finnland). […]

Data set [2] can be described thus: Hygroscopicity by Dynamic Vapor Sorption (DVS). The data set is classed as physicochemical. The note with it: 25° C. How it is done: Description of the Dynamic Vapor Sorption (DVS) Method Used
The weight change over time as a function of relative humidity (RH) at 25° C. was measured in a DVS Advantage, equipped with a SMS ultrabalance using DVS Advantage Control Software Version 1.2.0.21, from Surface Measurement Systems, London, UK.
Carrier gas was nitrogen 200 ml/minute. The sample amount was circa 10 mg. The equilibrium criteria, for each step, was set to 0.002%/minute with DMDT Window 5 minutes, DMDT Min Time 10 minutes and DMDT Max Time 360 minutes as defined in the Control Software. DMDT uses the percentage rate of change of mass with time (dm/dt) to determine whether a sample has come to equilibrium.
DMDT Window (min): The time window, over which a straight line is fitted to the mass data in order to calculate a value of dm/dt.
DMDT Min Time (min): The time that the measured dm/dt must satisfy the specified dm/dt criteria before switching to the next Method Stage.
DMDT Max Time (min): The maximum time a Method Stage will run in dm/dt mode before switching to the next Method Stage—regardless of whether the dm/dt criterion has been satisfied.
The sample was initially dried at 0% RH and the water vapor sorption was measured as weight gain after stepwise increase to 10, 20, 30, 40, 50, 60, 70, 80, 90 and 95% relative humidity. After stepwise drying using the same relative humidities in reverse order down to 0% RH a second sorption curve was obtained.

T2 sequence (P49841 whole entry): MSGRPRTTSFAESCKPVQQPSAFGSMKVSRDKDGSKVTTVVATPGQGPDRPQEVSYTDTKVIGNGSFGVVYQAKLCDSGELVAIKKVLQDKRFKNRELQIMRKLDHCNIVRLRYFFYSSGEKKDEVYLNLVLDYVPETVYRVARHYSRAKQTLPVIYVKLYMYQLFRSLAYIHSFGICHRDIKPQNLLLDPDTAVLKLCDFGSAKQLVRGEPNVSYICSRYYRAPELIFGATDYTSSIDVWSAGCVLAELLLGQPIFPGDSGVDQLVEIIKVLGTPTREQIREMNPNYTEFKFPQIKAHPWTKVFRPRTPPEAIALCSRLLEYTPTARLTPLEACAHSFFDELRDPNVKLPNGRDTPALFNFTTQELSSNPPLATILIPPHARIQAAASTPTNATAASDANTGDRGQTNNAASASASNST

Take `CN1CCN(C(=O)c2ccc(-c3cnc(N)c(-c4nc5cnccc5o4)n3)cc2)CC1` [Example 1, (4-(5-Amino-6-(oxazolo[4,5-c]pyridin-2-yl)pyrazin-2-yl)phenyl)(4-methylpiperazin-1-yl)methanone]: the Ki in data set [1] was 113 nM; on recombinant human GSK3β it was 2.3 nM. Also, the Average weight gain in data set [2] (0% RH) is given as 0.0%; in data set [2] (10% RH) it was 0.1%; in data set [2] (20% RH) it was 2.4%; in data set [2] (30% RH) it was 3.1%; in data set [2] (60% RH) it was 4.7%; in data set [2] (90% RH) it was 9.2%. Moreover, the “Weight gain calculated as molar equivalents of water” value is reported as 0.0 molar equivalents of water in data set [2] (0% RH); 0.0 molar equivalents of water in data set [2] (10% RH); 0.5 molar equivalents of water in data set [2] (20% RH); 0.7 molar equivalents of water in data set [2] (30% RH); 1.1 molar equivalents of water in data set [2] (60% RH); 2.1 molar equivalents of water in data set [2] (90% RH). Besides, the “Weight gain first sorption curve” value is 0.00% in data set [2] (0% RH); 0.12% in data set [2] (10% RH); 2.34% in data set [2] (20% RH); 3.09% in data set [2] (30% RH); 4.72% in data set [2] (60% RH); 9.16% in data set [2] (90% RH). Further, the “Weight gain second sorption curve” value in data set [2] (0% RH) was found to be 0.00%; in data set [2] (10% RH), 0.14%; in data set [2] (20% RH) it was 2.41%; in data set [2] (30% RH), 3.14%; in data set [2] (60% RH) it was 4.65%; in data set [2] (90% RH), 9.19%.

As for `Nc1ncc(-c2ccc(C(=O)N3CCNCC3)cc2)nc1-c1nc2cnccc2o1` [Example 14, (4-(5-Amino-6-(oxazolo[4,5-c]pyridin-2-yl)pyrazin-2-yl)phenyl)(piperazin-1-yl)methanone], the Ki at recombinant human GSK3β is 3.2 nM.

In general, Ki refers to a measure of affinity in units of concentration, obtained from inhibition or displacement.
